Measured values published in ChEMBL document CHEMBL1143190, “Synthesis and structure-activity relationships of soluble 8-substituted 4-(2-chlorophenyl)-9-hydroxypyrrolo[3,4-c]carbazole-1,3(2H,6H)-diones as inhibitors of the Wee1 and Chk1 checkpoint kinases” (Bioorg Med Chem Lett, 2008).

What was measured:
[1] = physchem
Description: Dissociation constant, pKa of the compound

[2] = biological target: Wee1-like protein kinase (Homo sapiens, UniProt P30291)
[3] = system: HT-29; assay: cells; format: functional, cell-based; conditions: Homo sapiens, HT-29, 72 h
Description: Cytotoxicity against human HT29 cells after 72 hrs

[4] = biological target: Cyclin-dependent kinase 1 (Homo sapiens, UniProt P06493); format: cell-based; conditions: ht-29
Chain of Cyclin-dependent kinase 1 (P06493 whole entry): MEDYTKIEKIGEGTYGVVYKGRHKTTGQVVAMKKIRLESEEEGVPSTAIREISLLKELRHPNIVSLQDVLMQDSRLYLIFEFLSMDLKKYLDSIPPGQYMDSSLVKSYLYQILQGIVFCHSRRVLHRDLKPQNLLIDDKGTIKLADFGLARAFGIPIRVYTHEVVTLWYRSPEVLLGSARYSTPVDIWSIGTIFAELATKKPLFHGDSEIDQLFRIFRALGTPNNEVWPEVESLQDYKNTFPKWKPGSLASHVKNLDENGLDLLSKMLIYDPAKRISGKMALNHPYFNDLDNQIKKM
Description: Inhibition of human Cdc2 kinase PY15 phosphorylation in HT29 cells by Western blot

[5] = system: HT-29; assay: cells; format: cell-based; conditions: Homo sapiens
Description: Inhibition of human Cdc2/cyclin B-mediated histone H1 kinase phosphorylation in HT29 cells

[6] = biological target: T1, Serine/threonine-protein kinase Chk1 (Homo sapiens, UniProt O14757)
T1 sequence (O14757 whole entry): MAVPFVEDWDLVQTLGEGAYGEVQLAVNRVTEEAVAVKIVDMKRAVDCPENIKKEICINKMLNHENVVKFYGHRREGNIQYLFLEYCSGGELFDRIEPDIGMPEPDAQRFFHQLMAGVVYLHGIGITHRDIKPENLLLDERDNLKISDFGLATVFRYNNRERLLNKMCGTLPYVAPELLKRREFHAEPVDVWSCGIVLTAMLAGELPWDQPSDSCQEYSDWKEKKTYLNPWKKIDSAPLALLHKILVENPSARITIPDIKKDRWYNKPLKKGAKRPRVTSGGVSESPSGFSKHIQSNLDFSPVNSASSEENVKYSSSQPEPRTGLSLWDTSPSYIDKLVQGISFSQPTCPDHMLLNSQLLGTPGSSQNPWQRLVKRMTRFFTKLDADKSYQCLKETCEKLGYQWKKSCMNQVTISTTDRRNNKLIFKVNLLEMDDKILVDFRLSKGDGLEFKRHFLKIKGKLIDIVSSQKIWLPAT

[7] = physchem; conditions: buffer
Description: Aqueous solubility in water

Chain of Wee1-like protein kinase (P30291 whole entry): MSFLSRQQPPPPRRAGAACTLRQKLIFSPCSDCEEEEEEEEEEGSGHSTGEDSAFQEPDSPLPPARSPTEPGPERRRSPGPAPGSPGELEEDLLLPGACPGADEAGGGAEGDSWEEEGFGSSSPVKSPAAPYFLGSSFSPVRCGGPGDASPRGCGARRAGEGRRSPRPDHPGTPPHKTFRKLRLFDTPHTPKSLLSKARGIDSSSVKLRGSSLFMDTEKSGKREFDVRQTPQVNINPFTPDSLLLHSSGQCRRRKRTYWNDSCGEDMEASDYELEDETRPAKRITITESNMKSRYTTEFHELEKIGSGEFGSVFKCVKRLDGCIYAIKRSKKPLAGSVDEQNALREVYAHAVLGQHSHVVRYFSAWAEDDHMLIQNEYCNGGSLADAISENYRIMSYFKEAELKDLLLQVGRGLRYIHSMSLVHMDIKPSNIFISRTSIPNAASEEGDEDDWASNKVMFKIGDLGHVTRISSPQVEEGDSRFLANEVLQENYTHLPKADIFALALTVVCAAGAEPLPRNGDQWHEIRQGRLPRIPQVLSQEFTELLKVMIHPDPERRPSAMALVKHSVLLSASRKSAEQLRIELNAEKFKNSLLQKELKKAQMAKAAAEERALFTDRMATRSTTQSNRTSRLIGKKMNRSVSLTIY

Structure (SMILES): CN(C)CCCCc1cc2c(cc1O)c1c3c(c(-c4ccccc4Cl)cc1n2C)C(=O)NC3=O
- pKa [1]: 9.5
- IC50 [2]: 34 nM

Structure (SMILES): Cn1c2cc(OCCCN3CCCC3)c(O)cc2c2c3c(c(-c4ccccc4Cl)cc21)C(=O)NC3=O
- IC50 [3]: 310 nM
- pKa [1]: 10.5
- IC50 [4]: 30 nM
- IC50 [5]: 230 nM

Structure (SMILES): O=C1NC(=O)c2c1c(-c1ccccc1Cl)cc1c2c2cc(O)c(CCCCN3CCCC3)cc2n1CCO
- pKa [1]: 10.5
- IC50 [2]: 24 nM

Structure (SMILES): O=C1NC(=O)c2c1c(-c1ccccc1Cl)cc1[nH]c3cc(OCCCN4CCOCC4)c(O)cc3c21
- pKa [1]: 7.8
- IC50 [2]: 26 nM

Structure (SMILES): Cn1c2cc(S(=O)(=O)CCCN3CCCC3)c(O)cc2c2c3c(c(-c4ccccc4Cl)cc21)C(=O)NC3=O
- pKa [1]: 10.5
- IC50 [2]: 160 nM

Structure (SMILES): O=C1NC(=O)c2c1c(-c1ccccc1Cl)cc1c2c2cc(O)c(CCCCN3CCOCC3)cc2n1CCO
- pKa [1]: 7.8
- IC50 [2]: 19 nM

Structure (SMILES): O=C1NC(=O)c2c1c(-c1ccccc1Cl)cc1c2c2cc(O)c(OCCCN3CCCC3)cc2n1CCO
- pKa [1]: 10.5
- IC50 [4]: 30 nM
- IC50 [2]: 24 nM
- IC50 [5]: 860 nM

Structure (SMILES): Cn1c2cc([S+]([O-])CCCN3CCCC3)c(O)cc2c2c3c(c(-c4ccccc4Cl)cc21)C(=O)NC3=O (configuration not stated)
- IC50 [6]: 7 nM
- pKa [1]: 10.5
- IC50 [2]: 33 nM

Structure (SMILES): O=C1NC(=O)c2c1c(-c1ccccc1Cl)cc1[nH]c3cc(OCCCN4CCCC4)c(O)cc3c21
- pKa [1]: 10.5
- IC50 [2]: 35 nM

Structure (SMILES): Cn1c2cc(CCCCN3CCCC3)c(O)cc2c2c3c(c(-c4ccccc4Cl)cc21)C(=O)NC3=O
- pKa [1]: 10.5
- IC50 [2]: 36 nM

Structure (SMILES): O=C1NC(=O)c2c1c(-c1ccccc1Cl)cc1c2c2cc(O)c(OCCCN3CCOCC3)cc2n1CCO
- pKa [1]: 7.8
- IC50 [4]: 250 nM
- IC50 [2]: 15 nM
- IC50 [5]: 530 nM

Structure (SMILES): Cn1c2cc(C(=O)NCCN3CCCC3)c(O)cc2c2c3c(c(-c4ccccc4Cl)cc21)C(=O)NC3=O
- pKa [1]: 10.5

Structure (SMILES): Cn1c2cc(OCCCN3CCOCC3)c(O)cc2c2c3c(c(-c4ccccc4Cl)cc21)C(=O)NC3=O
- pKa [1]: 7.8
- IC50 [2]: 57 nM

Structure (SMILES): CN(C)CCCOc1cc2[nH]c3cc(-c4ccccc4Cl)c4c(c3c2cc1O)C(=O)NC4=O
- pKa [1]: 9.5
- IC50 [2]: 26 nM

Structure (SMILES): O=C1NC(=O)c2c1c(-c1ccccc1Cl)cc1[nH]c3cc(CCCCN4CCCC4)c(O)cc3c21
- pKa [1]: 10.5
- IC50 [4]: 200 nM
- IC50 [2]: 50 nM
- IC50 [5]: 780 nM

Structure (SMILES): CN(C)CCCCc1cc2[nH]c3cc(-c4ccccc4Cl)c4c(c3c2cc1O)C(=O)NC4=O
- pKa [1]: 9.5
- IC50 [4]: 250 nM
- IC50 [2]: 49 nM
- IC50 [5]: 880 nM

Structure (SMILES): CN(C)CCCOc1cc2c(cc1O)c1c3c(c(-c4ccccc4Cl)cc1n2CCO)C(=O)NC3=O
- pKa [1]: 9.5
- IC50 [4]: 250 nM
- IC50 [2]: 18 nM
- IC50 [5]: 750 nM

Structure (SMILES): Cn1c2cc(S(=O)(=O)NCCN3CCCC3)c(O)cc2c2c3c(c(-c4ccccc4Cl)cc21)C(=O)NC3=O
- pKa [1]: 10.5
- IC50 [2]: 46 nM

Structure (SMILES): O=C1NC(=O)c2c1c(-c1ccccc1Cl)cc1[nH]c3cc(CCCCN4CCOCC4)c(O)cc3c21
- pKa [1]: 7.8
- IC50 [4]: 250 nM
- IC50 [2]: 37 nM
- IC50 [5]: 1230 nM

Structure (SMILES): Cn1c2cc(SCCCN3CCCC3)c(O)cc2c2c3c(c(-c4ccccc4Cl)cc21)C(=O)NC3=O
- pKa [1]: 10.5
- IC50 [2]: 20 nM

Structure (SMILES): CN(C)CCCOc1cc2c(cc1O)c1c3c(c(-c4ccccc4Cl)cc1n2C)C(=O)NC3=O
- IC50 [3]: 230 nM
- pKa [1]: 9.5
- IC50 [4]: 10 nM

Structure (SMILES): O=C1NC(=O)c2c1c(-c1ccccc1Cl)cc1c2c2cc(O)ccc2n1CCCO
- solubility [7]: < 3 µg/mL
- IC50 [4]: 250 nM

Structure (SMILES): Cn1c2cc(CCCCN3CCOCC3)c(O)cc2c2c3c(c(-c4ccccc4Cl)cc21)C(=O)NC3=O
- pKa [1]: 7.8
- IC50 [2]: 30 nM

Structure (SMILES): CN(C)CCCOc1cc2c(cc1O)c1c3c(c(-c4ccccc4Cl)cc1n2C)C(=O)NC3=O.Cl
- solubility [7]: 2200 µg/mL
